Test results as given in ChEMBL document CHEMBL1201862, “PubChem BioAssay data set” (2004).
Activity calls are given as the source filed them.

Experiments:
[1] = target: T1, Aspartyl aminopeptidase (Plasmodium falciparum 3D7, UniProt Q8I2J3)
T1 sequence (Q8I2J3 whole entry): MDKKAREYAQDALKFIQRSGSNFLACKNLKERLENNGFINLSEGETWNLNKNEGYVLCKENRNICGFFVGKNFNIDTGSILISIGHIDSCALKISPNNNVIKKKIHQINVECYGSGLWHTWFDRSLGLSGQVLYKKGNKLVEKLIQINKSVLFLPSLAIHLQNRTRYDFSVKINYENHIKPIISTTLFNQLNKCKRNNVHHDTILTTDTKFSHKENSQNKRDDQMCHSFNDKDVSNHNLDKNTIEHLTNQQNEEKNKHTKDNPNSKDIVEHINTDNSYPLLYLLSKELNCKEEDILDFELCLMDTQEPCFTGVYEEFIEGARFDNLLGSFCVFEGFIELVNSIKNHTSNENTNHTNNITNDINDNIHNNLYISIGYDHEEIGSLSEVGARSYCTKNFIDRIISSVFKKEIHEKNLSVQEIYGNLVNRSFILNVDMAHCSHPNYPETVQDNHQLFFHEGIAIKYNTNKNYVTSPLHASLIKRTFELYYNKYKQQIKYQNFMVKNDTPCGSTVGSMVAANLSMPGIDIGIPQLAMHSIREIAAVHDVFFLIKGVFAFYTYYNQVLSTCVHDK

[2] = tested on: H9c2; test: cells; type: functional, cell-based; settings: Rattus norvegicus, H9c2, Myocardium;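 note: confirmatory concentration-response retest of ultra-high-throughput screening hits for modulation of myocardial damage; cell death induced by hydrogen peroxide oxidative stress; compound pretreatment for 60 min then peroxide exposure for 2 h; potency is for protecting the cells against peroxide damage rather than for killing them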
[3] = target: Procathepsin L (Homo sapiens, UniProt P07711)
[4] = tested on: Streptococcus; test: GAS UMAA2166 growth inhibition – luminescence, BacTiterGlo, counter-screen for streptokinase expression inhibitor project, dose response (AID 1915); type: functional, organism-based;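 note: potency for reduction of bacterial viability or growth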
[5] = target: Photoreceptor-specific nuclear receptor (Homo sapiens, UniProt Q9Y5X4); type: functional;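 note: potency for compounds that break the NR2E3 corepressor complex and count as activators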
[6] = target: Peroxisome proliferator-activated receptor gamma/Nuclear receptor corepressor 2 (Homo sapiens, UniProt P37231+Q9Y618); type: functional
Sequence of Peroxisome proliferator-activated receptor gamma/Nuclear receptor corepressor 2 (P37231 whole entry): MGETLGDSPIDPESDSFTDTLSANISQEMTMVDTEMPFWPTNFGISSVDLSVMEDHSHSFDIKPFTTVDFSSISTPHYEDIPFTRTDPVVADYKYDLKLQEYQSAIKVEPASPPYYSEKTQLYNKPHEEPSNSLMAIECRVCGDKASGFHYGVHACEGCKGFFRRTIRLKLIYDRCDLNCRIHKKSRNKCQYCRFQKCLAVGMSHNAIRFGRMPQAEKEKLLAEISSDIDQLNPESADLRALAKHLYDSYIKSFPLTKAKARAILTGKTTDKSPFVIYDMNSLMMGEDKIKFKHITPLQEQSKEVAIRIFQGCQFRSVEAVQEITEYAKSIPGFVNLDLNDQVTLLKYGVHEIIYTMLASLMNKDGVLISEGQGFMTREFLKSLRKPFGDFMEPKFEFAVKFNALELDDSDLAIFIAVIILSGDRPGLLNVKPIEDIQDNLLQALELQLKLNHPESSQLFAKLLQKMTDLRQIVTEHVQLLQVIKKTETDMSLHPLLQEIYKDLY
Sequence of Peroxisome proliferator-activated receptor gamma/Nuclear receptor corepressor 2 (Q9Y618 whole entry): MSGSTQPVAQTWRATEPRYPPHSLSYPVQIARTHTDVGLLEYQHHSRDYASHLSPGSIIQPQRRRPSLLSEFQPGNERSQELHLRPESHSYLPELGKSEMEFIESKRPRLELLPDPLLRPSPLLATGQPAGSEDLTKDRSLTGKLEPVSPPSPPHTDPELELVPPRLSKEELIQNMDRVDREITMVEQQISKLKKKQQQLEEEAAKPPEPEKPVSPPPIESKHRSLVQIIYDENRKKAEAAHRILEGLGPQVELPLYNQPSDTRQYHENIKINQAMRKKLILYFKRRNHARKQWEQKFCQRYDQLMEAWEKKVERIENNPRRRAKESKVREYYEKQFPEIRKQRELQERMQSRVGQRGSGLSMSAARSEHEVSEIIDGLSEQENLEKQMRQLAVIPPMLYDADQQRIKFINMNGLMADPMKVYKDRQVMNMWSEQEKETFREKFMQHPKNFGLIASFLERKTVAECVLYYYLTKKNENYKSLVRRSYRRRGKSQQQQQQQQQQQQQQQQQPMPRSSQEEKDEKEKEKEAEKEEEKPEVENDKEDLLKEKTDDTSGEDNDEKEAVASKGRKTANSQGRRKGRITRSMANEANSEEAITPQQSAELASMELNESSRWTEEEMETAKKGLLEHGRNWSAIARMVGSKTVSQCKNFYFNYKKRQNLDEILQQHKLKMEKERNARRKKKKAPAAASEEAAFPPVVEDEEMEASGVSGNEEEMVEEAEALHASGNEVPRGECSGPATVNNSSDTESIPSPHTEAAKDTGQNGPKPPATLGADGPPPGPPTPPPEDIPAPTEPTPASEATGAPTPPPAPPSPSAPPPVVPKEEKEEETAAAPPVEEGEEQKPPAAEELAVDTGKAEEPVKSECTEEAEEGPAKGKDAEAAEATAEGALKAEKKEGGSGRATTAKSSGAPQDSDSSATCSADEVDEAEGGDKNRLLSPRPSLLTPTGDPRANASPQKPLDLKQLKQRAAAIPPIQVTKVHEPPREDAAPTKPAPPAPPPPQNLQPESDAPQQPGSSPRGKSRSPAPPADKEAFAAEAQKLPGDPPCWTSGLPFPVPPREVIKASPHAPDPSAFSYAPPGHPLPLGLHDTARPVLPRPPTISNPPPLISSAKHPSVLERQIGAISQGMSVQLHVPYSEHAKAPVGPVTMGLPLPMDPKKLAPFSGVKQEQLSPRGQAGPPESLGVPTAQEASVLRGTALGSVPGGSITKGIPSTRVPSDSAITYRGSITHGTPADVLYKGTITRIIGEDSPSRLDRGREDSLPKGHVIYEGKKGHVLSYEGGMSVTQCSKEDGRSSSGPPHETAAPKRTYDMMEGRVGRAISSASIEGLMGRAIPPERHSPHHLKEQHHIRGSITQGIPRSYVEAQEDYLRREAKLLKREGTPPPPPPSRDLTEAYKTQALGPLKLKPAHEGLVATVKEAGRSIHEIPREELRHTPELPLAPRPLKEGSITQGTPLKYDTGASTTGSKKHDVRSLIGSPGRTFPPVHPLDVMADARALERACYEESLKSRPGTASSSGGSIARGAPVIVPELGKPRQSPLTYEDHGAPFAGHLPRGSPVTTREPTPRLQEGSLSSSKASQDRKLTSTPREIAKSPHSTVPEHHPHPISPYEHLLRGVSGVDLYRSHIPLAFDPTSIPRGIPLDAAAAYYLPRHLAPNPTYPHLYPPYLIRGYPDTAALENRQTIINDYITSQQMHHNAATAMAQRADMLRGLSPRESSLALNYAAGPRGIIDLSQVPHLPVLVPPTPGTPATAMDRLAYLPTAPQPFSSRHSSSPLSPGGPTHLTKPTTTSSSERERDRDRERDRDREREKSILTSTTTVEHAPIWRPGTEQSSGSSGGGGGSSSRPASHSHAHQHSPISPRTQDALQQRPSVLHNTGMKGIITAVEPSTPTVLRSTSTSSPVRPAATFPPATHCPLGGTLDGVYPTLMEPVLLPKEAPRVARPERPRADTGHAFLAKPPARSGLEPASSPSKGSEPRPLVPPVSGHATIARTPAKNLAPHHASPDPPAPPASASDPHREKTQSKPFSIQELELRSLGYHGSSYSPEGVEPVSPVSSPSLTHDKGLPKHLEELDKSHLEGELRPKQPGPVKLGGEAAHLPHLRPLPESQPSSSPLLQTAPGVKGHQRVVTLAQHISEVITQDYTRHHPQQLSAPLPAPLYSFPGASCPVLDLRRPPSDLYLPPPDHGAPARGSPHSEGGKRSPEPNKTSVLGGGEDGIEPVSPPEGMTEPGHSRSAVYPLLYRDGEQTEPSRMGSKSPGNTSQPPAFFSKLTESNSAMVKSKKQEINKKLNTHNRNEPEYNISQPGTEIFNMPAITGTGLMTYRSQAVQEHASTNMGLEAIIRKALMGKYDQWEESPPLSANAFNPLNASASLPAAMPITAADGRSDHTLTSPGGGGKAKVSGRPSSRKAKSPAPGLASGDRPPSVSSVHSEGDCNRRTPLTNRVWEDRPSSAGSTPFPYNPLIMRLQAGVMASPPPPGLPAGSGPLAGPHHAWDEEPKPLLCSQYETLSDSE

[7] = tested on: Streptococcus sp. 'group A'; test: Streptococcus pyogenes SK(-)GAS viability under kanamycin – luminescence, BacTiterGlo, confirmation, counter-screen for streptokinase expression inhibitor project, dose response (AID 1900); type: functional, organism-based
[8] = target: NAD-dependent protein deacylase sirtuin-5, mitochondrial (Homo sapiens, UniProt Q9NXA8); test: sirtuin-5 deacylation blockers, concentration series – biochemical, fluorescence imaging, cherry-pick, set 5, dose response (AID 720591);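 note: desuccinylation of succinyl peptide AMC substrate read as fluorescence after trypsin release; potency of inhibitors that lower fluorescence and may act on trypsin instead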
Sequence of NAD-dependent protein deacylase sirtuin-5, mitochondrial (Q9NXA8 whole entry): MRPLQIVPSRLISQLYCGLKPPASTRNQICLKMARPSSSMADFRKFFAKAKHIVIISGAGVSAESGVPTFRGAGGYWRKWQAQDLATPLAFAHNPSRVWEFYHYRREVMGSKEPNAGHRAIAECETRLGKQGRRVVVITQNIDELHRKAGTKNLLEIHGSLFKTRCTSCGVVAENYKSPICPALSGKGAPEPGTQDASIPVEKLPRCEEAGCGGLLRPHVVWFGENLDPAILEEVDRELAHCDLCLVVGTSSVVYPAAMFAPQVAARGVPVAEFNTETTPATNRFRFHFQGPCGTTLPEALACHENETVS

[9] = target: T2, Ion channel NompC (Danio rerio, UniProt Q7T1G6); test: activators of mucolipin-3 and mucolipin-2 – cell-based, […], Fura-2 profiling panel, panel member TRPN1 Dose Response (AID 2116)
T2 sequence (Q7T1G6 whole entry): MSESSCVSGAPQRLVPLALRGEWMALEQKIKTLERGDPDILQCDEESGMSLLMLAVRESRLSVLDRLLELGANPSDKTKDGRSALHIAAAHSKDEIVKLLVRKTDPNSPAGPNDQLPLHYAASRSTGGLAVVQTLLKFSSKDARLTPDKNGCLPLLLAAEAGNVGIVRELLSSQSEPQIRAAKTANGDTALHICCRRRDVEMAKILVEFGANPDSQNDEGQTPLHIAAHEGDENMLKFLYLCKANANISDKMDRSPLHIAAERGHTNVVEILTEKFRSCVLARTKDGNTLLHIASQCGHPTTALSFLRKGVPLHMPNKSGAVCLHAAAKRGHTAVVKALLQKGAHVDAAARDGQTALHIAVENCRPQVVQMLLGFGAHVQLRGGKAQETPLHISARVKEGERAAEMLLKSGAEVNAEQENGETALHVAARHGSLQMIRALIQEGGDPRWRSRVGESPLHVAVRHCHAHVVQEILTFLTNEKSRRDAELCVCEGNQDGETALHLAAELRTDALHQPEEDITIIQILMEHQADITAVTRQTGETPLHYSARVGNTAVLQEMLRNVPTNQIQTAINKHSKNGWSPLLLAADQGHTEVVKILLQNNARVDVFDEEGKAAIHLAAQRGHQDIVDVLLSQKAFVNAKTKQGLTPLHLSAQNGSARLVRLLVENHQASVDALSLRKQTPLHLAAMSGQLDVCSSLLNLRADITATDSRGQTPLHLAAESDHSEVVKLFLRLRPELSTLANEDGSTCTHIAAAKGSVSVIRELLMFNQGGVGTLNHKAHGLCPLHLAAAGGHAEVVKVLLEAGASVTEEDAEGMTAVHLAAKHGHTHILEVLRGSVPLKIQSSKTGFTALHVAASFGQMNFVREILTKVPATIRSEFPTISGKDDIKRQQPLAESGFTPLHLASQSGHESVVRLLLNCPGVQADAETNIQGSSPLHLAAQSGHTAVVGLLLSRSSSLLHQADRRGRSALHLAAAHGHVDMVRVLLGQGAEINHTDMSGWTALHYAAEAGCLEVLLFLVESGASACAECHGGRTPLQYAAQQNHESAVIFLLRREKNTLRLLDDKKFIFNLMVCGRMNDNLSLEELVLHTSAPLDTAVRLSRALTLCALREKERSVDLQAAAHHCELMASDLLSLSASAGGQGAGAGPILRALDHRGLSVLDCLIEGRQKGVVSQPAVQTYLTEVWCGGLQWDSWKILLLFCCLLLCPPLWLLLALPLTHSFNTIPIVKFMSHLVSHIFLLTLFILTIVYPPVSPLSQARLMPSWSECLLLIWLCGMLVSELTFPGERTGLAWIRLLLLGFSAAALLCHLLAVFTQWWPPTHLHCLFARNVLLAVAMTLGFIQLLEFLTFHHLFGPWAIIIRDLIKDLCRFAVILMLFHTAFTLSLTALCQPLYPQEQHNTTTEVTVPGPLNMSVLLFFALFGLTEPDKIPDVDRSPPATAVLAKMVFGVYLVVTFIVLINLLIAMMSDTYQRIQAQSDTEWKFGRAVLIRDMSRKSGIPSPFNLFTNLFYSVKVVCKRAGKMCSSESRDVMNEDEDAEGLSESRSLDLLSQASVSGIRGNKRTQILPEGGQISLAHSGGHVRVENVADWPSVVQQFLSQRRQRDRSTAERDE

[10] = target: T2, Ion channel NompC; test: Fluorescence counterscreen assay for TRPML3 agonists: dose response cell-based high-throughput screening assay to identify agonists of the transient receptor potential channel N1 (TRPN1). [Related pubchem assays: 1526, 1424, 1448 ]; type: functional
[11] = target: T3, Mucolipin-3 (Homo sapiens, UniProt Q8TDD5); test: Dose response cell-based high-throughput screening assay for agonists of the transient receptor potential channel ML3 (TRPML3). [Related pubchem assays: 1526, 1424, 1448 ]; type: functional
T3 sequence (Q8TDD5 whole entry): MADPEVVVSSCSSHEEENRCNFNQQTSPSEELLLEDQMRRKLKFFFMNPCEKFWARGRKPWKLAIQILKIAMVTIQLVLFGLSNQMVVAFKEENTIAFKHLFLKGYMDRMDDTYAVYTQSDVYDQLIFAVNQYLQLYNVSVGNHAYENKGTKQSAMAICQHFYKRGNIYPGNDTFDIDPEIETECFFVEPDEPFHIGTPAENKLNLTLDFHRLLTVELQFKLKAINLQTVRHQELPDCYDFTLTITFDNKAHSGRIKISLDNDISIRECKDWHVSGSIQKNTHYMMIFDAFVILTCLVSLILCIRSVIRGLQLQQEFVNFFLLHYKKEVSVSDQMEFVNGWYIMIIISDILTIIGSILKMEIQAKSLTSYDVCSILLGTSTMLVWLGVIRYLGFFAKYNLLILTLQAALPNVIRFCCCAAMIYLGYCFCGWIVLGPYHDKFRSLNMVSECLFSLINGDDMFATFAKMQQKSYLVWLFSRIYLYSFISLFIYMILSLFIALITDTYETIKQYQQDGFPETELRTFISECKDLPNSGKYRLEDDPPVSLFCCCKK

[12] = target: Cytochrome P450 2C9 (Homo sapiens, UniProt P11712); settings: Potency
[13] = target: T4, Streptokinase A (Streptococcus pyogenes serotype M1, UniProt P10520); test: viability-normalized secreted streptokinase activity reduction – plasminogen activation absorbance, OD405, dose response (AID 1914); type: functional, Streptococcus pyogenes M1 GAS;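 note: secreted streptokinase activity via plasminogen activation per viability signal from cell pellet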
T4 sequence (P10520 whole entry): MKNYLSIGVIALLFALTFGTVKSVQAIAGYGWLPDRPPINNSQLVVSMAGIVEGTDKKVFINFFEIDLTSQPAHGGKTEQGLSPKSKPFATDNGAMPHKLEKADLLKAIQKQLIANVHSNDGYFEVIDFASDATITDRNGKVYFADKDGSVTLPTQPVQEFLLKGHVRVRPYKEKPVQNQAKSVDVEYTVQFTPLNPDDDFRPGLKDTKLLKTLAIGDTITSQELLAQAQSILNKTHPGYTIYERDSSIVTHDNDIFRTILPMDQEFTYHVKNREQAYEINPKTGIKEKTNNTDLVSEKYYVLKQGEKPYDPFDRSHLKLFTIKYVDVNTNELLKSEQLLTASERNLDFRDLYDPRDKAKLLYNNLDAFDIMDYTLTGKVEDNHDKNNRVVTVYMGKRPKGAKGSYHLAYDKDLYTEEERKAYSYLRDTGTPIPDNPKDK

[14] = tested on: Streptococcus; test: Luminescence Microorganism-Based Dose Response Follow up to Identify Compounds Cytotoxic to Streptococcus. [Related pubchem assays: 1677 (Project Summary), 1915, 1914, 1902 (Retest at Dose), 1900 (Counter Screen), 1662 (Primary HTS)]; type: functional, organism-based
[15] = toxicity toward immortalized ovarian surface epithelium – cell-based, plate reader, dry powder samples, cytotoxicity control for PAX8 inhibitor project, dose response (AID 743045); type: functional
[16] = HEK-293T viability loss after treatment – luminescence, T-cell screen hits, cytotoxicity control for TCR NF-kB inhibitor project, dose response (AID 489026); type: functional, cell-based;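 note: cells exposed to compound about 14 hours before the viability readout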
[17] = luciferase reporter signal reduction – luminescence, H4-C neuroglioblastoma cells, dose response (AID 2458); type: functional, cell-based;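 note: H4 neuroglioblastoma cells stably carrying a luciferase reporter gene fusion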
[18] = OVCAR-3 cell viability loss – plate reader, dry powder samples, PAX8 inhibitor project, dose response (AID 743044); type: functional, cell-based
[19] = IGROV1 cell killing – plate reader, dry powder samples, PAX8 inhibitor project, dose response (AID 743043); type: functional, cell-based; settings: IGROV-1
[20] = PAX5 cellular inhibition readout – cell-based, plate reader, dry powder samples, selectivity assay for PAX8 inhibitor project, dose response (AID 743047); type: functional;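 note: HEK293 cells carrying a Pax5 driven CD19 promoter luciferase reporter; potency of inhibitors that lower reporter luminescence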
[21] = target: Phospholipase A2 (Homo sapiens, UniProt P04054); test: phospholipase A2 activity inhibition – biochemical, set 2, counter-screen for ATG4B inhibitor project, dose response (AID 588586); type: functional
Sequence of Phospholipase A2 (P04054 whole entry): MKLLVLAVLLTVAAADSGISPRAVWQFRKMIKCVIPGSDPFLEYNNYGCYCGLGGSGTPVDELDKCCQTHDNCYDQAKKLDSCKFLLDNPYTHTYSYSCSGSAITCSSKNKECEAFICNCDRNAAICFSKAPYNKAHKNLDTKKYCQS

[22] = COV434 cell viability loss – plate reader, dry powder, SA7, cytotoxicity control for PAX8 inhibitor project, dose response (AID 743145); type: functional, cell-based
[23] = inhibitors acting on PAX2 in cells – cell-based, plate reader, dry powder samples, selectivity assay for PAX8 inhibitor project, dose response (AID 743048); type: functional;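 note: HEK293 cells carrying a WT1 promoter luciferase reporter driven by expressed Pax2; potency is for inhibition of Pax2 driven reporter signal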
[24] = OVCAR4 cell viability loss – plate reader, dry powder, SA11, cytotoxicity control for PAX8 inhibitor project, dose response (AID 743150); type: functional, cell-based; settings: OVCAR-4
[25] = alpha-synuclein stem-loop translation blockers – luminescence, H4 neuroglioblastoma cells, dose confirmation, confirmation (AID 2454); type: functional, cell-based;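 note: H4 neuroglioblastoma cells carrying an alpha-synuclein 5'UTR luciferase reporter; potency for inhibition of the luciferase signal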
[26] = DRD fibroblast viability loss – cell-based, non-viral oncogenic, luminescence, dose response (AID 1934); type: functional; settings: Homo sapiens
[27] = COV362 cell viability loss – plate reader, dry powder, SA12, cytotoxicity control for PAX8 inhibitor project, dose response (AID 743144); type: functional, cell-based
[28] = alpha-synuclein stem-loop luciferase translation blockers – H4 neuroglioma cells, luminescence, confirmation (AID 1988); type: functional, cell-based
[29] = tested on: BJ; test: BJ-TERT-LT-ST fibroblast viability loss – cell-based, RAS-independent, luminescence, dose response (AID 1935); type: functional; settings: Homo sapiens;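 note: BJ fibroblasts immortalized with TERT plus LT and ST oncogenes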
[30] = Luminescence-based dose response cell-based high throughput screening assay for cytotoxic compounds using the IEC-6 intestinal epithelial cell line. [Related pubchem assays: 1858 (Summary AID.), 1825 (Counterscreen.), 1907 (Confirmation screen.)]; type: functional
[31] = target: T5, Cysteine protease ATG4B (Homo sapiens, UniProt Q9Y4P1); test: autophagin-1 cysteine protease inhibition – biochemical, fluorescence, set 2, dose response (AID 588584); type: functional
T5 sequence (Q9Y4P1 whole entry): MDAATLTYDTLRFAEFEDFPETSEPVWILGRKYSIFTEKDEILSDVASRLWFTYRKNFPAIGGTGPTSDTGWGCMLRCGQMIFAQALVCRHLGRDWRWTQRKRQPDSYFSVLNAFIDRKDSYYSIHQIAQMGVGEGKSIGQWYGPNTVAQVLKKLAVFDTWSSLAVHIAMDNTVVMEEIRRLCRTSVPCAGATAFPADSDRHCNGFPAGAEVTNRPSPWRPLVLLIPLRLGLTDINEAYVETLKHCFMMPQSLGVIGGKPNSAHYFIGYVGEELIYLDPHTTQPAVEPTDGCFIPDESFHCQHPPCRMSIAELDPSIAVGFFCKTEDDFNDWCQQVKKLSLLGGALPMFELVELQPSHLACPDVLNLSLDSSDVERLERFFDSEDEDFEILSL

[32] = A2780 cell killing – plate reader, dry powder samples, cytotoxicity control, dose response (AID 743046); type: functional, cell-based
[33] = PAX8-dependent cell viability loss – plate reader, dry powder, dose response (AID 743049); type: functional, cell-based
[34] = OV-90 cell viability loss – plate reader, dry powder, SA8, PAX8 inhibitor project, dose response (AID 743149); type: functional, cell-based
[35] = target: Paired box protein Pax-8 (Homo sapiens, UniProt Q06710); test: PAX8 transcriptional activity inhibition in RMG-I – RMG-I cells, luciferase, cherry-pick, dose response (AID 687027); type: functional, cell-based;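 note: luciferase reporter driven by Pax8 target thyroperoxidase promoter measured by SteadyGlo luminescence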
[36] = tested on: BJ; test: BJ-TERT fibroblast viability loss – cell-based, RAS-independent, luminescence, dose response (AID 1933); type: functional; settings: Homo sapiens
[37] = tested on: BJ; test: cells; type: functional, cell-based; settings: Homo sapiens
[38] = cells; type: functional, cell-based
[39] = target: T6, Neuropeptides B/W receptor type 1 (Homo sapiens, UniProt P48145); test: human NPBW1 receptor blockade, IC50 – cell-based, fluorescence, dose response, late-stage follow-up (AID 463251); type: functional
T6 sequence (P48145 whole entry): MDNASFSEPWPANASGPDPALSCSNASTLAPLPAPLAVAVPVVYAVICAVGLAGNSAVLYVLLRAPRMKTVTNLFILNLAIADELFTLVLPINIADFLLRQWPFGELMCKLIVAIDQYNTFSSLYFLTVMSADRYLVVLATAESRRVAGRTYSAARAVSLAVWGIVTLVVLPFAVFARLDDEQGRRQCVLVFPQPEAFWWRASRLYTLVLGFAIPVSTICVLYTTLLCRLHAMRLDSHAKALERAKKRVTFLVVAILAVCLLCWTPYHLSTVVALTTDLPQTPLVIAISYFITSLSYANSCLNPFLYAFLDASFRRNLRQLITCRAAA

[40] = target: Melanin-concentrating hormone receptor 1 (Homo sapiens, UniProt Q99705); test: Late-stage fluorescence-based counterscreen for antagonists of the G-protein coupled receptor 7 (GPR7): cell-based dose response assay to identify antagonists of the melanin-concentrating hormone receptor 1 (MCHR1). [Related pubchem assays (depositor defined):AID1861, AID1880, AID1952, AID2148, AID2251, AID2257, AID485339]; type: functional;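 note: stimulated with 30 nM MCH peptide agonist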
[41] = target: NACHT, LRR and PYD domains-containing protein 3 (Homo sapiens, UniProt Q96P20); test: NALP3 inhibitors in yeast, dose response, luminescent (AID 488799); type: functional

CCOC(=O)Cc1csc(NC(=O)NC2(C(F)(F)F)Oc3ccccc3O2)n1
IC50 [1]: 3.02 µM (active)
IC50 [2]: 17.5 µM (active)
IC50 [3]: > 59.6 µM (not active)

Cc1cc(N2C(=O)C(O)=C(C(=O)c3cc4ccccc4o3)C2c2ccc(Br)cc2)no1 (stereo not drawn)
EC50 [4]: 2.78 µM (active)
IC50 [5]: > 39.8 µM (not active)
IC50 [6]: 2.92 µM (active)
EC50 [7]: 2.01 µM (active)
AC50 [8]: 17.5 µM (active)

O=S(=O)(Nc1ccccc1N1CCOCC1)c1ccc(Cl)s1
EC50 [9]: > 29.9 µM (inactive)
EC50 [10]: > 29.9 µM (not active)
EC50 [11]: 1.36 µM (active)

CC(C)C[C@@H](CC(=O)N[C@H](CC(=O)N[C@@H]1CCCC[C@H]1C(=O)N[C@H](CC(=O)N[C@@H](CCC(=O)O)CC(=O)O)CC(C)C)C(C)C)NC(=O)[C@@H]1CCCC[C@H]1N
AC50 [12]: 39.8 µM (inconclusive)

FC(F)(F)c1cc(-c2ccco2)nc(NCc2ccc(Cl)cc2)n1
EC50 [4]: > 150 µM (not active)
EC50 [13]: 9.32 µM (active)
EC50 [14]: 9.49 µM (active)
EC50 [7]: 8.27 µM (active)

CCCC1=Nc2cc(C(=O)NCCCOCC)ccc2Sc2ccccc21
AC50 [15]: 1.22 µM (active)
IC50 [16]: > 80 µM (inactive)
EC50 [17]: 592 nM (active)
AC50 [18]: 5.37 µM (active)
AC50 [19]: 7.99 µM (active)
AC50 [20]: 1.48 µM (active)
IC50 [21]: 48.9 µM (inactive)
AC50 [22]: 1.3 µM (active)
AC50 [23]: 64 µM (active)
AC50 [24]: 885 nM (active)
EC50 [25]: 836 nM (active)
EC50 [26]: 740 nM (inconclusive)
AC50 [27]: 1.42 µM (active)
EC50 [28]: < 100 nM (active)
EC50 [29]: 607 nM (inconclusive)
IC50 [30]: 389 nM (active)
IC50 [31]: 49 µM (inactive)
AC50 [32]: 5.66 µM (active)
AC50 [33]: 7.23 µM (active)
AC50 [34]: 1.36 µM (active)
AC50 [35]: 1.74 µM (active)
EC50 [36]: 586 nM (inconclusive)
EC50 [37]: 863 nM (inconclusive)
EC50 [38]: 985 nM (active)

Cc1ccc(-n2ncc(Cl)c(Oc3ccc(OC(F)(F)F)cc3)c2=O)cc1
IC50 [39]: 880 nM (active)
IC50 [40]: 2.9 µM (active)

O=C(NCCCc1ccccc1)c1c(O)nc2sccn2c1=O
IC50 [41]: 9.61 µM (active)
